Test results from US20230115335A1, “PYRAZOLE DERIVATIVES WITH ANTICANCER ACTIVITY” (BOARD OF REGENTS, THE UNIVERSITY OF TEXAS SYSTEM, priority 2021, published 2023).
Entries after “also recorded” stand apart in the source; their conditions may differ. Like-named read-outs stand apart in the source and are kept apart here.

Legend:
[1] = test system: CEM cell line; test: DNS cytotoxicity assay, CEM; format: cell-based, human
Text: […] […] After treatment, images were acquired and analyzed to determine percentages of live/dead cells and their cytotoxicity. […] The Hs-27 non-cancerous human foreskin fibroblast cell line was used for comparison purposes.

[2] = test system: MDA-MB231; test: DNS cytotoxicity assay, MDA-MB-231; format: cell-based; conditions: Homo sapiens, Table 4, Breat Cancer, 72 hrs, read-out: CC50 MDA-MB231
Description: (§1) Since the non-adherent (free floating) lymphoma/leukemia cell lines divide faster than the adherent cell lines, they were incubated for a shorter period (48 h) of time with the compound.
(§2) Lymphoma/leukemia cell lines, which grow in suspension, were incubated for 48 h with the compounds. […] After treatment, images were acquired and analyzed to determine percentages of live/dead cells and their cytotoxicity. […] The Hs-27 non-cancerous human foreskin fibroblast cell line was used for comparison purposes.

[3] = DNS cytotoxicity assay, HS-27 non-cancerous fibroblast; format: cell-based; conditions: human, Hs-27 non-cancerous foreskin fibroblast cells; Table 4; Normal Fibroblast; 72 hrs; read-out: CC50 HS27
Description: as §1, §2

[4] = test system: RAMOS; test: DNS cytotoxicity assay, RAMOS; format: cell-based; conditions: Homo sapiens, Lymphoma-Leukemia, 48 hrs
Text: (§3) Using the high throughput Differential Nuclear Staining (DNS) screening assay (Lema et al., Current Cellular Biochemistry 1, 1-14, 2011) 15 pyrazole compounds were synthesized and screened on the human T-cell Acute Lymphoblastic Leukemia CEM cell line (Tables 1 and 2). […] The compounds were synthesized based on a pyrazole backbone structure previously determined to have potent cytotoxic activity (FIG. 5). Several commercial and non-commercial analogues (see Table 3) have been tested and determined that the ones with highest activity have a similar structure circled in FIG. 5. […] SSK-3 has been tested on a few cancer cell lines (see Table 4) and also found to induce programmed cell death via a variety of biochemical assays. […] Since the non-adherent (free floating) lymphoma/leukemia cell lines divide faster than the adherent cell lines, they were incubated for a shorter period (48 h) of time with the compound.
(§4) SSK-3 has potent cytotoxic activity against a panel of human cancer cell lines. The cytotoxic activity of SSK-3 was examined by the DNS assay (Lema et al., Current Cellular Biochemistry 1, 1-14, 2011). Lymphoma/leukemia cell lines, which grow in suspension, were incubated for 48 h with the compounds. […] After treatment, images were acquired and analyzed to determine percentages of live/dead cells and their cytotoxicity. […]

[5] = test system: HL-60; test: DNS cytotoxicity assay, HL-60; format: cell-based; conditions: Homo sapiens, Lymphoma-Leukemia, 48 hrs
Text: as §3, §4

[6] = test system: Jurkat; test: DNS cytotoxicity assay, Jurkat; format: cell-based, human
Text: as §3
SSK-3 has potent cytotoxic activity against a panel of human cancer cell lines. The cytotoxic activity of SSK-3 was examined by the DNS assay (Lema et al., Current Cellular Biochemistry 1, 1-14, 2011). Lymphoma/leukemia cell lines, which grow in suspension, were incubated for 48 h with the compounds. Since the adherent cells generally divide at a slower rate than the non-adherent cell lines, the MDA-MB231, HCC1419, T47D, COLO205, PANC-1, A-549 adherent cancer cells lines were incubated for 72 h in the presence of the compounds. After treatment, images were acquired and analyzed to determine percentages of live/dead cells and their cytotoxicity. […] The Hs-27 non-cancerous human foreskin fibroblast cell line was used for comparison purposes.

[7] = test system: NALM-6; test: DNS cytotoxicity assay, NALM-6; format: cell-based; conditions: Homo sapiens, Lymphoma-Leukemia, 48 hrs
Text: as §3, §4

[8] = test system: K562; test: DNS cytotoxicity assay, K562; format: cell-based; conditions: Homo sapiens, Lymphoma-Leukemia, 48 hrs
Text: as §3, §4

[9] = test system: MiNO; test: DNS cytotoxicity assay, MiNO; format: cell-based; conditions: Homo sapiens, Mantle cell Lymphoma, 48 or 72 hrs
Text: as §3, §4

[10] = test system: Jeko-1; test: DNS cytotoxicity assay, Jeko-1; format: cell-based; conditions: Homo sapiens, Mantle cell Lymphoma, 48 or 72 hrs
Text: as §3, §4

[11] = test system: Z138; test: DNS cytotoxicity assay, Z138; format: cell-based; conditions: Homo sapiens, Z-138; Mantle cell Lymphoma; 48 or 72 hrs
Text: as §3, §4

[12] = test system: JVM-2; test: DNS cytotoxicity assay, JVM-2; format: cell-based; conditions: Homo sapiens, Mantle cell Lymphoma, 48 or 72 hrs
Text: as §3, §4

[13] = test system: JVM-13; test: DNS cytotoxicity assay, JVM-13; format: cell-based; conditions: Homo sapiens, JVM13; Mantle cell Lymphoma; 48 or 72 hrs
Text: as §3, §4

[14] = test system: MM.1S; test: DNS cytotoxicity assay, MM.1S; format: cell-based; conditions: Homo sapiens, MM1.S; Multiple Myeloma; 48 or 72 hrs
Text: as §3, §4

[15] = test system: MM.1R; test: DNS cytotoxicity assay, MM.1R; format: cell-based; conditions: Homo sapiens, Multiple Myeloma, 48 or 72 hrs
Text: as §3, §4

[16] = test system: U226; test: DNS cytotoxicity assay, U226; format: cell-based; conditions: Homo sapiens, Multiple Myeloma, 48 or 72 hrs
Text: as §3, §4

[17] = test system: RPMI-8226; test: DNS cytotoxicity assay, RPMI-8226; format: cell-based; conditions: Homo sapiens, Multiple Myeloma, 48 or 72 hrs
Text: as §3, §4

[18] = test system: MDA-468; test: DNS cytotoxicity assay, MDA-468; format: cell-based; conditions: Homo sapiens; Breat Cancer; 72 hrs
Text: as §3, §4

[19] = test system: HCC1419; test: DNS cytotoxicity assay, HCC1419; format: cell-based; conditions: Homo sapiens, Breat Cancer, 72 hrs
Text: as §3, §4

[20] = test system: T47D; test: DNS cytotoxicity assay, T47D; format: cell-based; conditions: Homo sapiens, Breat Cancer, 72 hrs
Text: as §3, §4

[21] = test system: PANC-1; test: DNS cytotoxicity assay, PANC-1; format: cell-based; conditions: Homo sapiens, Pancreatic cancer, 72 hrs
Text: as §3, §4

[22] = test system: Colo 205; test: DNS cytotoxicity assay, Colo 205; format: cell-based; conditions: Homo sapiens, Colon Cancer, 72 hrs
Text: as §3, §4

[23] = test system: CEM cells; test: Phosphatidylserine externalization, Annexin V-FITC/PI assay; format: cell-based, human; conditions: CC50 and 2×CC50 (0.24 and 0.48 μM printed), vs solvent control
Description: FIG. 1. […] CEM cells were treated at the CC50 and twice (2×) that concentration of SSK-3. Note that PS externalization is an early marker of apoptosis. * Indicates P value less than 0.001.
SSK-3 induces significant phosphatidylserine externalization. To corrobotate whether SSK-3 utilizes apoptosis to induce cell death, we measured phosphatidylserine (PS) externalization in SSK-3-treated CEM cells by using the Annexin V-FITC/PI assay (3, 4).

[24] = test system: CEM cells; test: Mitochondrial depolarization; format: cell-based, human; conditions: CC50 and 2×CC50
Description: (§5) FIG. 2A-2C. […] CEM cells were treated at the CC50 and twice (2×) that concentration of SSK-3.
(§6) SSK-3 induces caspase-3 activation. Mitochondrial depolarization is one of the salient features of cell-death induction and this was observed after treatment of CEM cells with SSK-3 (FIG. 2A). […] CEM cells were treated with SSK-3 for 7 h and subsequently stained with the NucView caspase-3 substrate and analyzed via flow cytometry (Gutierrez et al., Cell biology and toxicology 35, 503-19, 2019) (FIG. 2B).

[25] = test system: caspase-3 in CEM cells; test: Caspase-3 activation, NucView substrate, flow cytometry; format: cell-based, human; conditions: 7 h, P<0.05 vs DMSO control
Description: as §5, §6

[26] = test system: CEM cells; test: Generation of Reactive Oxygen Species; format: cell-based, human; conditions: CC50 and 2×CC50
[27] = test system: membrane microtubule organization; test: Membrane microtubule organization; format: cell-based; conditions: 2 hours; vs DMSO control
[28] = test system: cell cycle; test: Cell cycle arrest; format: cell-based; conditions: data not shown
[29] = test system: Tubulin; test: Tubulin polymerization, biochemical assays
[30] = test system: HL-60 leukemia cell line; test: Apoptosis induction in HL-60; format: cell-based
[31] = test system: CEM cells; test: Mode of cell death: intrinsic apoptosis pathway; format: cell-based, human
Description: as §5
These compounds were tested in mice at a concentration of 160 mg/kg and after 3-4 daily doses, animals tolerated the treatments well. Different cytotoxicity patterns of the compounds against distinct cell lines has been noted, and it is therefore possible that distinct pyrazoles will act on distinct cellular effectors with different modes of action. However, all of the pyrazole compounds so far tested including SSK-3 induce cell death via the intrinsic apoptosis pathway as will be described below.

For `Cc1ccc2c(c1)/C(=N/NC(=O)c1n[nH]c3c1CCC3)C(=O)N2` [SSK-3, N-(5-methyl-2-oxoindolin-3ylidene)-1,4,5,6-tetrahydrocyclopenta[c]pyrazole-3-carbohydrazide], the CC50 ([1]; Homo sapiens, CCRF-CEM, 48 h, Table 4, Lymphoma-Leukemia, 48 hrs, read-out: CC50 CEM) was 1400 nM, the CC50 ([1]; Initial Screen, DNS assay, read-out: CEM CC50) was 1390 ± 680 nM and the CC50 [2] was 2300 nM. The CC50 at 72 h [3] was 15400 nM, the CC50 [4] was 1650 nM and the CC50 [5] was 750 nM. For the same compound, the “times more cytotoxic toward Jurkat than HS27” value ([6]; CC50 HS27 / CC50 Jurkat) was 37 times, the CC50 ([6]; Homo sapiens, Jurkat, Lymphoma-Leukemia, 48 hrs) was 420 nM and the CC50 [7] was 2040 nM. For the same compound, the CC50 [8] was 2130 nM, the CC50 [9] was 1070 nM and the CC50 [10] was 1240 nM. It also gave a CC50 [11] of 3360 nM, a CC50 [12] of 790 nM and a CC50 [13] of 790 nM. The CC50 [14] was 4610 nM, the CC50 [15] was 3880 nM and the CC50 [16] was 4440 nM. The CC50 [17] was 2470 nM, the CC50 [18] was 3980 nM and the CC50 [19] was > 20000 nM. For the same compound, the CC50 [20] was 3870 nM, the CC50 [21] was 1860 nM and the CC50 [22] was 2430 nM. The “PS externalization” value [23] was “induces significant PS externalization in a dose-response manner; also recorded: Induction of Phosphatidylserine (PS) externalization”, the Mitochondrial depolarization [24] was “Mitochondrial depolarization was observed” and the caspase-3 activation [25] was “induced a statistically significant activation of caspase-3; also recorded: Activation of Caspase 3 was detected”. For the same compound, the “Generation of Reactive Oxygen Species (ROS)” value [26] was “led to the generation of Reactive Oxygen Species (ROS)”, the “disruption of membrane microtubule organization” value [27] was “severe disruption of membrane microtubule organization” and the cell cycle arrest [28] was “cause cell cycle arrest and interfere with cellular replication”. The Tubulin polymerization inhibition [29] was “inhibiting tubulin polymerization”, the induction of apoptosis [30] was “induced apoptosis via mitochondrial depolarization and phosphatidylserine membrane exposure” and the “induction of the intrinsic apoptosis pathway” value [31] was “induces the intrinsic apoptosis pathway”.
